In US20200237700A1, “METHODS OF REDUCING OR PREVENTING OXIDATION OF SMALL DENSE LDL OR MEMBRANE POLYUNSATURATED FATTY ACIDS” (Amarin Pharmaceuticals Ireland Limited, priority 2015, published 2020):

Assays:
HUVECs = test: NO release from HUVECs incubated with treated, oxidized sdLDL samples (Example 12); format: cell-based, human; settings: EPA-treated
Protocol: All samples, with the exception of non-oxidized sdLDL controls, were subjected to copper-induced oxidation for 1 hour. Human umbilical vein endothelial cells (HUVECs) were incubated with the various sdLDL samples, stimulated with calcium, and monitored for nitric oxide (NO) and peroxynitrite (ONOO^−) release using nanosensor technology.

[1] = Small angle x-ray diffraction of glucose-treated model membranes, cholesterol domain peak intensity (Example 4); format: physicochemical; settings: 96-hour time point; vs vehicle or vitamin E treatments; 1:30; glucose 200 mg/dL
Protocol: After centrifugal orientation, sample supernatants were aspirated and aluminum foil substrates, each supporting a single membrane pellet, were removed from the sedimentation cells. […] All x-ray diffraction experiments were conducted at 20° C., 74% relative humidity.
Oriented membrane samples were aligned at grazing incidence with respect to a collimated, mono-chromatic CuKα x-ray beam (Kα1 and Kα2 unresolved; λ=1.54 Å) produced by a Rigaku Rotaflex RU-200, high-brilliance microfocus generator (Rigaku-MSC, The Woodlands, Tex.) as previously described (Mason et al., Biophys. J., vol. 55(4), pages 769-778 (1989)).
Routines written in Origin 8.6 (OriginLab Corporation, Northampton, Mass.) were used to determine total peak area (associated with all diffraction peaks in a given pattern) against which the second-order cholesterol domain peak was normalized.

human sdLDL = test: Copper-induced sdLDL oxidation, TBARS after 2 hr (Example 6); format: biochemical; settings: 10 μM CuSO4
Protocol: An experiment to study the antioxidant effect of EPA in small dense […] performed. […] Vitamin E (α-tocopherol) was purchased from Sigma-Aldrich and prepared in ethanol at 1.0 mM (ε=3.06×10^4 M^-1 cm^-1 at 294 nm) just prior to experimental use. All test compounds were further diluted in ethanol or aqueous buffer as needed. Venous blood was collected from healthy volunteers into vacutainer tubes containing sodium EDTA. Plasma was separated by centrifugation at 3000 g for 25 min at 4° C. and adjusted to a density of 1.020 g/mL with KBr. Triglyceride-rich lipoproteins (TGRL) and LDL fractions were then isolated by sequential centrifugation at 70,000 rpm at 4° C. in a Beckman LE-80 ultracentrifuge using a Beckman 50.4Ti rotor (Beckman Coulter, Inc., Fullerton, Calif.). The TGRL fraction (with a relative density of <1.020) was aspirated from the top of the centrifugate and discarded, leaving an LDL-enriched […] relative density of 1.020 to 1.063). […] The sdLDL subfraction was retained for additional experimentation. Plasma and lipoprotein fractions were maintained at 4° C. and protected from excessive exposure to light. Prior to oxidation experiments, EDTA was removed from the lipoprotein fraction using PD-10 desalting columns (GE Healthcare, Piscataway N.J.). After equilibration of the column with phosphate buffered saline (PBS), 2.5 mL of the lipoprotein fraction was loaded on the column and the flow-through discarded. The lipoprotein was then eluted with 3 mL of PBS. The LDL fractions were further diluted with PBS to obtain a 100 μg/mL apoB100 concentration. […] Data are presented as mean±S.D. for (N) separate samples or treatment groups. Differences between groups were analyzed using the two-tailed, Student's t-test (for comparisons between only two groups) or ANOVA followed by Dunnett or Student-Newman-Keuls multiple comparisons post-hoc analysis (for comparisons between three or more groups).

[2] = test system: HUVECs challenged with oxLDL; test: NO and ONOO− release from HUVECs pretreated with agents, then oxLDL (Example 11, Objective 1); format: cell-based, human; settings: pretreated 30 min at 10 μM, then oxLDL 11 mg/dL up to 3 hr, calcium ionophore 1.0 μM
Protocol: The omega-3 fatty acid, cis-5,8,11,14,17-eicosapentaenoic acid (EPA) and docosahexaenoic acid (DHA) were purchased from Sigma-Aldrich (Saint Louis, Mo.) and solubilized in redistilled ethanol to 11 mM under nitrogen atmosphere. EPA and DHA stock solutions were stored at −20° C. until use.
Human umbilical vein endothelial cells (HUVECs) were obtained from healthy, female donors and isolated into primary, proliferating cell cultures (Clonetics, San Diego, Calif.). […] The confluent cells (4 to 5×10^5 cells/35 mm dish) were plated with minimum essential medium containing 3 mM L-arginine and 0.1 mM BH4 [(6R)-5,6,7,8-tetrahydrobiopterin]. Before experimental use, the cells (from second or third passage) were rinsed twice with Tyrode-HEPES buffer with 1.8 mM CaCl2. […]
LDL underwent oxidation following the addition of 10 μM CuSO4. […] Sample TBARS concentrations were determined spectrophotometrically by measuring sample absorbances against a standard curve derived from the hydrolysis of 1,1,3,3-tetramethoxypropane. […]
The amperometric method (with a response time of 0.1 ms) provides a quantitative signal (current) that is directly proportional to changes (from basal levels) in NO or ONOO^− concentration. […] Basal NO or ONOO^− levels were measured by differential pulse voltammetry in separate experiments. […]
NO and ONOO^− release were measured following stimulation with calcium.

SMILES | NO release increased as compared to non-oxidized sdLDL treatment (HUVECs) | NO release increased as compared to oxidized LDL treatment (HUVECs) | inhibited relative cholesterol domain peak intensity [1] | reduced TBARS levels compared to vehicle-treated controls (human sdLDL; 1.0 μM) | reduced TBARS levels compared to vehicle-treated controls (human sdLDL; 10.0 μM) | NO/ONOO− Ratio [2] | NO/ONOO− Ratio ([2]; listed as Niacin)
CC/C=C\C/C=C\C/C=C\C/C=C\C/C=C\CCCC(=O)O [EPA, cis-5,8,11,14,17-eicosapentaenoic acid] | 23% | 53% | more than 99% | 13% | 57% |  | 
O=C(O)c1cccnc1 [niacin, nicotinic acid] |  |  |  |  |  | 1.45±0.14 | 1.45 ± 0.14
